Each molecule was assayed against Metabotropic glutamate receptor 5 (Rattus norvegicus, UniProt P31424) (assay: Concentration for half maximal activation of metabotropic glutamate mGluR5a in rat).
Sequence of Metabotropic glutamate receptor 5 (P31424 whole entry): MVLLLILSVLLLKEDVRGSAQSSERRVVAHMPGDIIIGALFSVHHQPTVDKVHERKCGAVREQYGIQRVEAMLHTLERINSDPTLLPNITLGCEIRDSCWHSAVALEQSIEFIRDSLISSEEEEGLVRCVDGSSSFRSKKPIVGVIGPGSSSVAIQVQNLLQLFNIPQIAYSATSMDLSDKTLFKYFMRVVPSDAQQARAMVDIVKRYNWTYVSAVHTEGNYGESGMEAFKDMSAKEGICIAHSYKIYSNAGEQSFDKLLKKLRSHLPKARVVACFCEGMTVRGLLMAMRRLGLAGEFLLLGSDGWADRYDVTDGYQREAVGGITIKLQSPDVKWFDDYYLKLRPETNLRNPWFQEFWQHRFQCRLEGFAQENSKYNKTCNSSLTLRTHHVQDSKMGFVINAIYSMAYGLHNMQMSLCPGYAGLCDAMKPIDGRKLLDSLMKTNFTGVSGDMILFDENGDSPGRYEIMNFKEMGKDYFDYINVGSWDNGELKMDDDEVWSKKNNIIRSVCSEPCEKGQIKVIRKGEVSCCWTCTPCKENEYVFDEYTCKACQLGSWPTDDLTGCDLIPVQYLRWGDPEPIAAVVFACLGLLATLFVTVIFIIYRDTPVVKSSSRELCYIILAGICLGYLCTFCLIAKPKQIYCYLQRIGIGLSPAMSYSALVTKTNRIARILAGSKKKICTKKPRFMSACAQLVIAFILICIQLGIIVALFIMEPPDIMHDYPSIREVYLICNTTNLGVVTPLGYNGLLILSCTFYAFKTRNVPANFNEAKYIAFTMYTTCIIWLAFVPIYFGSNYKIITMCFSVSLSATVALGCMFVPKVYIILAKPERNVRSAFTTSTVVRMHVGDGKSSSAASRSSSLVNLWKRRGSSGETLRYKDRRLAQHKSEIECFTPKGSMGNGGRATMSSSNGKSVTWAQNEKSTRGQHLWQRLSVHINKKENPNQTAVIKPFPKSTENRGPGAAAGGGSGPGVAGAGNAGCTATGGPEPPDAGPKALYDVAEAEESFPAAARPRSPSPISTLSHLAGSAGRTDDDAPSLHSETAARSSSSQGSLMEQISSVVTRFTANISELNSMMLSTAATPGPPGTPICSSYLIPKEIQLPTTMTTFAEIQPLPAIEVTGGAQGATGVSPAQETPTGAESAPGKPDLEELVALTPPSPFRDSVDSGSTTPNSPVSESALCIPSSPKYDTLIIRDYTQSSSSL

Compound | EC50 [µM]
N[C@H](C(=O)O)c1cc(=O)[nH]o1 [(S)-Amino-(3-oxo-2,3-dihydro-isoxazol-5-yl)-acetic acid] | 10
N[C@@H](Cn1oc(=O)[nH]c1=O)C(=O)O [2-amino-3-(3,5-dioxo[1,2,4]oxadiazolidin-2-yl)propionic acid] | 0.3
N[C@@]1(C(=O)O)CC[C@@H](C(=O)O)C1 [SMR001230688] | 50
N[C@@H](CCC(=O)O)C(=O)O [L-Glutamic acid] | 10

Source: BindingDB's records for doi:10.1021/jm00009a001 (Cns Research, 1995)
